Results reported in publication PMC8348780, “Preparation and Evaluation of Novel Folate Isonitrile ^99mTc Complexes as Potential Tumor Imaging Agents to Target Folate Receptors” (Molecules, 2021).

Tests used:
[1] = Partition coefficient, 1-octanol / phosphate buffer pH 7.4; assay type: physicochemical; conditions: 1-octanol / phosphate buffer 0.025 M
Protocol: The partition coefficient was measured as follows: 1.9 mL of phosphate buffer solution (0.025 M, pH 7.4), 2.0 mL of 1-octanol, and 0.1 mL of ^99mTc-CN5FA or ^99mTc-CNPFA solution were added to the centrifuge tube, and the sample was swirled for 5 min and centrifuged for 5 min (3000 r/min). Then, the radioactivity counts of the two phases were measured by taking 0.1 mL from the organic phase and the water phase. The partition coefficient P was calculated. The final partition coefficient was expressed as log P ± SD.

KB tumor-bearing mice [2] = assay: SPECT/CT imaging study in KB tumor-bearing mice; assay type: in vivo, BALB/c nude mice; conditions: 2 h post injection, about 18.5 MBq i.v.
Protocol: The SPECT/CT imaging experiments were also divided into a normal group and an inhibition group (n = 3). The labeled solution (about 18.5 MBq) was injected into the tail vein of nude mice bearing KB tumor. The inhibition group was injected with 100 µg FA (about 4 × 10^4 µg/kg) 30 min in advance. After 2 h, the SPECT/CT scan was performed in anesthetized mice by using 1.5% isoflurane. The SPECT acquisition (peak value 140 keV, 20% width, 90° rotation, MMP 919 Collimator) was performed after 4 min of CT scanning (512 views, 2 × 2 binding, 75 kV, exposure time 230 ms). SPECT/CT images were made using HiSPECT software and vivoquant 2.5 software.

KB tumor-bearing mice [3] = assay: Biodistribution study in KB tumor-bearing mice; assay type: in vivo, BALB/c nude mice; conditions: for Tumor uptake: KB tumor
Protocol: The biodistribution experiments were divided into normal groups and inhibition groups (n = 3), in which the inhibition group was injected with inhibitor (about 4 × 10^4 µg/kg) 30 min in advance. The KB tumor-bearing mice were decapitated 30 and 120 min after the tail vein injection of 0.1 mL labeled solution (about 7.4 × 10^4 Bq). The heart, liver, lung, kidney, spleen, stomach, bone, muscle, intestine, tumor, blood, and other related tissues and organs were wiped clean and weighed, and the radioactivity count was measured. Each tissue per gram of injection dose (%ID/g) was calculated.

[4] = molecular target: T1, folate receptor (KB cells) (Homo sapiens, UniProt P15328); assay: In vitro competitive binding with KB cells; conditions: 37 °C, 2 h, competitive binding with inhibitor
T1 construct: endogenous in cells; host or cells: KB cells
T1 sequence (P15328 25-257): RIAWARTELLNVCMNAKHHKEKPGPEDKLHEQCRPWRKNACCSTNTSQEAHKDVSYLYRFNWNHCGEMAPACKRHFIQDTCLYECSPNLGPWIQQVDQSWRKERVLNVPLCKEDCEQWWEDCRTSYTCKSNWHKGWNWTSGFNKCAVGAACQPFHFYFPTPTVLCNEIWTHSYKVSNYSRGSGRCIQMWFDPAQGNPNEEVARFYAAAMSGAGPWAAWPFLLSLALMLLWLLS
Protocol: KB cells were cultured with FFRPMI 1640 medium 24 h in advance on a 48-well plate with 5 × 10^4 cells per well. The labeling solution was diluted to 5 μCi/mL with the same medium after growing, and the inhibitor was prepared at different concentrations. The 48-well plates were divided into eight groups, and each group was incubated with 100 μL of inhibitor solution, 100 μL of diluted labeled solution (5 μCi/mL), and 200 μL of medium at 37 °C for 2 h.
After removing the cell plate from the incubator, the medium was removed, and the cells were washed with PBS (0.1 M, pH 7.4). The washed cells were lysed with NaOH (1 M) for 5 min. Pyrolysates were collected in the hoses, and the radioactivity count of each hose was measured by a γ-counter. The data were analyzed with GraphPad Prism 5.0 and nonlinearly fit to the log IC50 ± SD value.

[5] = Stability in mouse serum at 37 °C (RCP by radio-HPLC); assay type: in vitro ADME; conditions: 4 h
Protocol: (§1) The complexes were determined by ITLC/SG of the ACD system and radio-HPLC. The ITLC/SG trip was cut into 10 equal parts, and radioactive counting of ITLC strips was determined by a γ-counter. ITLC results of both complexes were as follows: in ACD solution, [^99mTc]Tc-CN5FA and [^99mTc]Tc-CNPFA stayed at the origin (Rf = 0–0.1), while ^99mTcO4^− (Rf = 0.9–1.0) and ^99mTcO2·nH2O (Rf = 0.8–1.0) were moved to the front. Radio-HPLC was analyzed by a mobile phase system consisting of 0.1% TFA water (solvent A) and 0.1% TFA acetonitrile (solvent B) with a gradient of 0−2 min 10% B, 2−5 min 10%−90% B, 10−20 min 90% B, and 20−25 min 90%−10% B (system B) at a flow rate of 1 mL/min. All experiments were performed in triplicate.
(§2) The stability of [^99mTc]Tc-CN5FA and [^99mTc]Tc-CNPFA in vitro was evaluated by measuring the RCP of the complexes. Stability in saline was achieved by holding the solution at room temperature for 4 h. Stability in the serum was achieved by mixing 100 μL of [^99mTc]Tc-CN5FA or [^99mTc]Tc-CNPFA with 200 μL of mouse serum at 37 °C for 4 h. After precipitation using acetonitrile, centrifugation, and concentration, the solutions were analyzed by radio-HPLC.

[6] = Stability in saline / radiolabeling solution at room temperature (RCP by radio-HPLC); assay type: physicochemical; conditions: 4 h
Protocol: as §1, §2

[7] = 2 h p.i., block: FA about 4 × 10^4 µg/kg 30 min in advance

Structure (SMILES): [99Tc+].[C-]#[N+]CCCCCC(=O)NCCNC(=O)CC[C@H](NC(=O)c1ccc(NCc2cnc3nc(N)[nH]c(=O)c3n2)cc1)C(=O)O.[C-]#[N+]CCCCCC(=O)NCCNC(=O)CC[C@H](NC(=O)c1ccc(NCc2cnc3nc(N)[nH]c(=O)c3n2)cc1)C(=O)O.[C-]#[N+]CCCCCC(=O)NCCNC(=O)CC[C@H](NC(=O)c1ccc(NCc2cnc3nc(N)[nH]c(=O)c3n2)cc1)C(=O)O.[C-]#[N+]CCCCCC(=O)NCCNC(=O)CC[C@H](NC(=O)c1ccc(NCc2cnc3nc(N)[nH]c(=O)c3n2)cc1)C(=O)O.[C-]#[N+]CCCCCC(=O)NCCNC(=O)CC[C@H](NC(=O)c1ccc(NCc2cnc3nc(N)[nH]c(=O)c3n2)cc1)C(=O)O.[C-]#[N+]CCCCCC(=O)NCCNC(=O)CC[C@H](NC(=O)c1ccc(NCc2cnc3nc(N)[nH]c(=O)c3n2)cc1)C(=O)O [[^99mTc]Tc-CN5FA]
- log P [1]: −1.92 ± 0.15
- Visualization of tumor lesions by SPECT/CT (KB tumor-bearing mice [2]): clearly visualized
- T/B (tumor/blood ratio) (KB tumor-bearing mice [3]; 0.5 h p.i.): 1.28
- T/M (tumor/muscle ratio) (KB tumor-bearing mice [3]; 0.5 h p.i.): 1.76
- Blood uptake (KB tumor-bearing mice [3]; 0.5 h p.i., i.v., n = 3): 2.36 ± 0.10 %ID/g
- Bone uptake (KB tumor-bearing mice [3]; 0.5 h p.i., i.v., n = 3): 1.03 ± 0.09 %ID/g
- Heart uptake (KB tumor-bearing mice [3]; 0.5 h p.i., i.v., n = 3): 2.60 ± 0.16 %ID/g
- Intestines uptake (KB tumor-bearing mice [3]; 0.5 h p.i., i.v., n = 3): 2.35 ± 0.79 %ID/g
- Kidney uptake (KB tumor-bearing mice [3]; 0.5 h p.i., i.v., n = 3): 47.20 ± 2.99 %ID/g
- Liver uptake (KB tumor-bearing mice [3]; 0.5 h p.i., i.v., n = 3): 13.91 ± 1.27 %ID/g
- Lung uptake (KB tumor-bearing mice [3]; 0.5 h p.i., i.v., n = 3): 2.88 ± 0.09 %ID/g
- Muscle uptake (KB tumor-bearing mice [3]; 0.5 h p.i., i.v., n = 3): 1.72 ± 0.10 %ID/g
- Spleen uptake (KB tumor-bearing mice [3]; 0.5 h p.i., i.v., n = 3): 3.07 ± 0.03 %ID/g
- Stomach uptake (KB tumor-bearing mice [3]; 0.5 h p.i., i.v., n = 3): 2.17 ± 0.70 %ID/g
- Thyroid uptake (KB tumor-bearing mice [3]; 0.5 h p.i., i.v., n = 3): 0.05 ± 0.00 %ID
- T/M (tumor/muscle ratio) (KB tumor-bearing mice [3]; 2 h p.i.): 1.91
- Blood uptake (KB tumor-bearing mice [3]; [7]): 1.05 ± 0.08 %ID/g
- Bone uptake (KB tumor-bearing mice [3]; [7]): 1.02 ± 0.18 %ID/g
- Heart uptake (KB tumor-bearing mice [3]; [7]): 0.84 ± 0.05 %ID/g
- Intestines uptake (KB tumor-bearing mice [3]; [7]): 1.39 ± 0.15 %ID/g
- Kidney uptake (KB tumor-bearing mice [3]; [7]): 35.40 ± 4.08 %ID/g
- Liver uptake (KB tumor-bearing mice [3]; [7]): 10.22 ± 0.43 %ID/g
- Lung uptake (KB tumor-bearing mice [3]; [7]): 2.27 ± 0.16 %ID/g
- Muscle uptake (KB tumor-bearing mice [3]; [7]): 0.61 ± 0.10 %ID/g
- Spleen uptake (KB tumor-bearing mice [3]; [7]): 4.52 ± 0.38 %ID/g
- Stomach uptake (KB tumor-bearing mice [3]; [7]): 1.70 ± 0.16 %ID/g
- Thyroid uptake (KB tumor-bearing mice [3]; [7]): 0.03 ± 0.00 %ID
- Blood uptake (KB tumor-bearing mice [3]; 2 h p.i., i.v., n = 3): 1.08 ± 0.03 %ID/g
- Bone uptake (KB tumor-bearing mice [3]; 2 h p.i., i.v., n = 3): 0.87 ± 0.16 %ID/g
- Heart uptake (KB tumor-bearing mice [3]; 2 h p.i., i.v., n = 3): 2.29 ± 0.26 %ID/g
- Intestines uptake (KB tumor-bearing mice [3]; 2 h p.i., i.v., n = 3): 1.38 ± 0.15 %ID/g
- Kidney uptake (KB tumor-bearing mice [3]; 2 h p.i., i.v., n = 3): 51.92 ± 3.10 %ID/g
- Liver uptake (KB tumor-bearing mice [3]; 2 h p.i., i.v., n = 3): 11.88 ± 1.22 %ID/g
- Lung uptake (KB tumor-bearing mice [3]; 2 h p.i., i.v., n = 3): 2.78 ± 0.57 %ID/g
- Muscle uptake (KB tumor-bearing mice [3]; 2 h p.i., i.v., n = 3): 1.27 ± 0.03 %ID/g
- Spleen uptake (KB tumor-bearing mice [3]; 2 h p.i., i.v., n = 3): 3.08 ± 0.42 %ID/g
- Stomach uptake (KB tumor-bearing mice [3]; 2 h p.i., i.v., n = 3): 2.00 ± 0.33 %ID/g
- Thyroid uptake (KB tumor-bearing mice [3]; 2 h p.i., i.v., n = 3): 0.03 ± 0.01 %ID
- Tumor uptake (KB tumor-bearing mice [3]; 0.5 h p.i., i.v., n = 3): 3.03 ± 0.10 %ID/g
- Tumor uptake (KB tumor-bearing mice [3]; [7]): 1.53 ± 0.10 %ID/g
- Tumor uptake (KB tumor-bearing mice [3]; 2 h p.i., i.v., n = 3): 2.42 ± 0.44 %ID/g
- IC50 [4]: 37.9 ± 0.41 nM
- RCP after incubation [5]: more than 95%
- RCP after incubation [6]: more than 95%
